The record followed here is patent US20020010182A1, “Piperazine derivatives as tachykinin antagonists” (FUJISAWA PHARMACEUTICAL CO., LTD., priority 1995, published 2002).

In one data set the target is T1, h-NK1 receptors (Homo sapiens, UniProt P25103).
T1 construct: expressed in transfected cells; host or cells: CHO cells (permanent expression), crude cell membranes
Description: Evaluation of NK1 antagonist transport efficiency to the central nervous system using a h-NK1 receptor binding assay. The following applies: 5 min, brain extract of male SD rats 5 min after i.v. injection of test compound, CHO cell membranes expressing h-NK1, read-out: inhibition rate of 125I-BH-Substance P binding to h-NK1 receptors. As for the experimental part: A. Evaluation of NK1 Antagonist Transport Efficiency to the Cental Nervous System Using a h-NK1 Receptor Binding Assay
(1) Administration of Test Compound and Extraction of the Compound From Brain
Male SD rats were given an i.v. injection of a solution containing a test compound (1 mg/kg). 5 Min later the animals were anesthetized by ether, bled and perfused through the aorta ascendens with 20 ml of saline. The brain was rapidly removed, weighed and homogenized in 4 vol. ice-cold distilled water by using Polytoron (KINEMATICA). To extract the test compound, 500 μl of the homogenate, 100 μl of methanol, 500 μl of 0.1 N NaOH and 4 ml of ethyl acetate were mixed by shaking for 10 min at room temperature. The organic phase (2.5 ml) was recovered by centrifugation at 3,000 rpm for 10 min, dried and dissolved in dimethyl sulfoxide.
(2) h-NK1 Receptor Binding Assay
(a) Crude CHO Cell Membrane Preparation
CHO cells permanently expressing h-NK1 receptors were harvested and homogenized with a Dounce homogenizer at 4° C. in a buffer (0.25 M sucrose, 25 mM Tris-HCl (pH 7.4), 10 mM MgCl2, 1 mM EDTA, 5 μg/ml p-APMSF). The homogenate was centrifuged (500×g, 10 min), and the pellet was resuspended in the same buffer, homogenized, and centrifuged. The two supernatants were combined and centrifuged (100,000×g, 1 hour). The crude cell membranes thus isolated were resuspended in a buffer (25 MM Tris-HCl (pH 7.4), 10 mM MgCl2, 1 mM EDTA, 5 μg/ml p-APMSF) and stored at −80° C. until use.
(b) ^125I-BH-Substance P Binding to the Prepared Membrane
Cell membranes (6 μg/ml) were incubated with ^125I-BH-Substance P (0.1 nM) with or without the extracted compounds in 0.25 ml of a medium (50 mM Tris-HCl (pH 7.4), 5 mM MnCl2, 20 μg/ml chymrostatin, 40 μg/ml bacitracin, 4 μg/ml leupeptin, 5 μg/ml p-APMSF, 200 μg/ml BSA) at 22° C. for 90 min. At the end of the incubation period, the contents were quickly filtered through a Blue Mat 11740 filter (pretreated with 0.1% polyethylenimine for 3 hours prior to use) by using SKATRON Cell Harvester. The filter was then washed with a washing buffer (50 mM Tris-HCl (pH 7.4), 5 mM MnCl2) . The radioactivity was counted by using an auto gamma counter (Packard RIASTAR 5420A). All data presented are specific binding defined as that displaceable by 3 μM unlabeled Substance P.

Where only a bound is given, the exact number is not on record here.

T1 sequence (P25103 whole entry): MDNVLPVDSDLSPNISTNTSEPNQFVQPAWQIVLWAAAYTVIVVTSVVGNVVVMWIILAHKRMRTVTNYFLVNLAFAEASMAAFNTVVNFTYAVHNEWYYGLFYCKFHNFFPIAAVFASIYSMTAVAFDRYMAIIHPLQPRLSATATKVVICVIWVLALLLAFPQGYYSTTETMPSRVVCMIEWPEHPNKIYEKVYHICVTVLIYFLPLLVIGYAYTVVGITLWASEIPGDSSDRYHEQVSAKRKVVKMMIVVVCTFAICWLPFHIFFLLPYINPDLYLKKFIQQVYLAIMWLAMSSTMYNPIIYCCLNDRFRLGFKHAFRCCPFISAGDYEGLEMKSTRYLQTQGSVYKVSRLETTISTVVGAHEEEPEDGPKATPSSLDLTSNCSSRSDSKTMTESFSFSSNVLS

`Cl.Cl.O=C(c1cc(C(F)(F)F)cc(C(F)(F)F)c1)N1CCN(CC#CCN2CCSCC2)C[C@H]1Cc1ccc(F)cc1` [84-(1), (2R)-1-[3,5-Bis(trifluoromethyl)benzoyl]-2-(4-fluorobenzyl)-4-(4-thiomorpholino-2-butynyl) piperazine dihydrochloride]: the melting point was 180 °C (dec.). Also, the inhibition at 1 mg/kg on h-NK1 receptors is more than 80%.
On the same counts, the results for `Cc1ccc(C[C@@H]2CN(CC#CCN3CCOCC3)CCN2C(=O)c2cc(C(F)(F)F)cc(C(F)(F)F)c2)cc1C.Cl.Cl` [37-(2), (2R)-4-(4-Morpholino-2-butynyl)-1-[3,5-bis (trifluoromethyl)benzoyl]-2-(3,4-dimethylbenzyl) piperazine dihydrochloride] are 155 to 162 °C and more than 80%.
On the same counts, the results for `Cc1ccc(C[C@@H]2CN(CC#CCN3CCOCC3C)CCN2C(=O)c2cc(C(F)(F)F)cc(C(F)(F)F)c2)cc1C.Cl.Cl` (stereo partly drawn) [Example 58, (2R)-1-[3,5-bis(trifluoromethyl)benzoyl]-2-(3,4-dimethylbenzyl)-4-[4-(3-methylmorpholino)-2-butynyl]piperazine dihydrochloride] are 150 to 160 °C and more than 80%.
For `Cc1ccc(C[C@@H]2CN(CCCN3CCOCC3)CCN2C(=O)c2cc(C(F)(F)F)cc(C(F)(F)F)c2)cc1C.Cl.Cl` [53-(1), (2R)-1-[3,5-Bis(trifluoromethyl)benzoyl]-2-(3,4-dimethylbenzyl)-4-(3-morpholinopropyl) piperazine dihydrochloride] the same measures were 220 to 230 °C and more than 80%.
Take `CC(=O)c1ccc(CN2CCN(C(=O)c3cc(C(F)(F)F)cc(C(F)(F)F)c3)[C@H](Cc3c[nH]c4ccccc34)C2)cc1.Cl` [Example 7, (2R)-4-(4-acetylbenzyl)-1-[3,5-bis(trifluoromethyl)benzoyl]-2-(1H-indol-3-ylmethyl) piperazine hydrochloride]: the melting point was 172 °C (dec.). Besides, the inhibition at 1 mg/kg at h-NK1 receptors was more than 80%.
Take `Cl.Cn1cc(CN2CCN(C(=O)c3cc(C(F)(F)F)cc(C(F)(F)F)c3)[C@H](Cc3c[nH]c4ccccc34)C2)cn1` [Example 77, (2R)-1-[3,5-bis (trifluoromethyl)benzoyl]-2-(1H-indol-3-ylmethyl)-4-[(1-methyl-1H-pyrazol-4-yl)methyl]piperazine hydrochloride]: the melting point lay within 122 to 136 °C. In addition, the inhibition at 1 mg/kg at h-NK1 receptors is more than 80%.
For `Cl.Cl.O=C(c1cc(C(F)(F)F)cc(C(F)(F)F)c1)N1CCN(C/C=C/CN2CCOCC2)C[C@H]1Cc1ccc2ccccc2c1` [62-(1), (2R)-1-[3,5-Bis(trifluoromethyl)benzoyl]-2-(2-naphthylmethyl)-4-[(E)-4-morpholino-2-butenyl]piperazine dihydrochloride] the same measures were more than 230 °C and more than 80%.
On the same counts, the results for `Cl.Cl.O=C(c1cc(C(F)(F)F)cc(C(F)(F)F)c1)N1CCN(C/C=C/CN2CCOCC2)C[C@H]1Cc1c[nH]c2ccccc12` [Example 76, (2R)-1-[3,5-Bis(trifluoromethyl)benzoyl]-2-(1H-indol-3-ylmethyl)-4-[(E)-4-morpholino-2-butenyl]piperazine dihydrochloride] are 123 to 128 °C and more than 80%.
For `Cc1ccc(C[C@@H]2CN(CCCCN3CCOCC3)CCN2C(=O)c2cc(C(F)(F)F)cc(C(F)(F)F)c2)cc1C.Cl.Cl` [Example 54, (2R)-1-[3,5-bis(trifluoromethyl)benzoyl]-2-(3,4-dimethylbenzyl)-4-(4-morpholinobutyl) piperazine dihydrochloride] the same measures were 279 °C and more than 80%.
On to `COCCN(C)CCN1CCN(C(=O)c2cc(C(F)(F)F)cc(C(F)(F)F)c2)[C@H](Cc2ccc(C)c(C)c2)C1.Cl.Cl` [Example 67-(13), (2R)-1-[3,5-Bis(trifluoromethyl)benzoyl]-2-(3,4-dimethylbenzyl)-4-[2-[N-(2-methoxyethyl) -N-methylamino]ethyl]piperazine dihydrochloride], for which the melting point is 222 °C (dec.). At h-NK1 receptors, the inhibition at 1 mg/kg is more than 80%.
For `Cc1ccc(C[C@@H]2CN(CCCCCN3CCOCC3)CCN2C(=O)c2cc(C(F)(F)F)cc(C(F)(F)F)c2)cc1C.Cl.Cl` [Example 74, (2R)-1-[3,5-Bis(trifluoromethyl)benzoyl]-2-(3,4-dimethylbenzyl)-4-(5-morpholinopentyl) piperazine dihydrochloride] the same measures were 235 to 238 °C and more than 80%.
`Cc1ccc(C[C@@H]2CN(Cc3cnn(C)c3)CCN2C(=O)c2cc(C(F)(F)F)cc(C(F)(F)F)c2)cc1C.Cl` [Example 51, (2R)-1-[3,5-bis(trifluoromethyl)benzoyl]-2-(3,4-dimethylbenzyl)-4-[(1-methyl-1H-pyrazol-4-yl)methyl]piperazine hydrochloride] registered a melting point of 243 to 244 °C. For the same compound, the inhibition at 1 mg/kg on h-NK1 receptors is more than 80%.
On the same counts, the results for `CC1(C)COCCN1CC=CCN1CCN(C(=O)c2cc(C(F)(F)F)cc(C(F)(F)F)c2)[C@H](Cc2c[nH]c3ccccc23)C1.Cl.Cl` [Example 86, (2R) -1-[3,5-Bis(trifluoromethyl)benzoyl]-2-(1H-indol-3-ylmethyl)-4-[4-(3,3-dimethylmorpholino)-2-butenyl]piperazine dihydrochloride] are 210 °C (dec.) and more than 80%.
On the same counts, the results for `COCC1CN(CC#CCN2CCN(C(=O)c3cc(C(F)(F)F)cc(C(F)(F)F)c3)[C@H](Cc3ccc(C)c(C)c3)C2)CCO1.Cl.Cl` (stereo partly drawn) [59-(1), (2R)-1-[3,5-Bis(trifluoromethyl)benzoyl]-2-(3,4-dimethylbenzyl)-4-[4-(2-methoxymethylmorpholino)-2-butynyl]piperazine dihydrochloride] are 150 to 165 °C and more than 80%.
On the same counts, the results for `Cc1ccc(C[C@@H]2CN(CCN3CCSCC3)CCN2C(=O)c2cc(C(F)(F)F)cc(C(F)(F)F)c2)cc1C.Cl.Cl` [Example 37-(8), (2R)-4-(2-Thiomorpholinoethyl)-1-[3,5-bis (trifluoromethyl)benzoyl]-2-(3,4-dimethylbenzyl) piperazine dihydrochloride] are 261.5 °C and more than 80%.
Take `Cc1ccc(C[C@@H]2CN(CC#CCN3CCOCC3(C)C)CCN2C(=O)c2cc(C(F)(F)F)cc(C(F)(F)F)c2)cc1C.Cl.Cl` [Example 59-(3), (2R)-1-[3,5-Bis(trifluoromethyl)benzoyl]-2-(3,4-dimethylbenzyl)-4-[4-(3,3-dimethylmorpholino)-2-butynyl]piperazine dihydrochloride]: the melting point lay in the range of 180 to 190 °C. Besides, the inhibition at 1 mg/kg on h-NK1 receptors is more than 80%.
`Cl.Cl.O=C(c1cc(C(F)(F)F)cc(C(F)(F)F)c1)N1CCN(CC#CCN2CCSCC2)C[C@H]1Cc1c[nH]c2ccccc12` [Example 37-(4), (2R)-4-(4-Thiomorpholino-2-butynyl)-1-[3,5-bis (trifluoromethyl)benzoyl]-2-(1H-indol-3-ylmethyl) piperazine dihydrochloride] registered a melting point of 166 to 170 °C. In addition, the inhibition at 1 mg/kg on h-NK1 receptors was more than 80%.
For `Cc1ccc(C[C@@H]2CN(C/C=C/CN3CCOCC3)CCN2C(=O)c2cc(C(F)(F)F)cc(C(F)(F)F)c2)cc1C.Cl.Cl` [Example 75, (2R)-1-[3,5-bis(trifluoromethyl)benzoyl]-2-(3,4-dimethylbenzyl)-4-[(E)-4-morpholino-2-butenyl]piperazine dihydrochloride] the same measures were 236 to 242 °C and more than 80%.
For `Cc1ccc(C[C@@H]2CN(C/C=C\CN3CCOCC3)CCN2C(=O)c2cc(C(F)(F)F)cc(C(F)(F)F)c2)cc1C.Cl.Cl` [Example 72, (2R)-1-[3,5-Bis(trifluoromethyl)benzoyl]-2-(3,4-dimethylbenzyl)-4-[(Z)-4-morpholino-2-butenyl]piperazine dihydrochloride] the same measures were 243 to 246 °C and more than 80%.
